Test results as given in patent US6358885B1, “Substituted phenylheterocyclic herbicides” (Mississippi State University, priority 1992, dated 2002).

Columns and labels:
blackgrass = assay: Test C preemergence/postemergence greenhouse plant response rating 0 to 100; type: in vivo, Alopecurus myosuroides; details: for Plant response rating, Blackgrass: 125 g/ha, 0 to 100 scale
In short: (§1)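 Compounds in non-phytotoxic solvent went onto sandy loam before emergence (seeded one day earlier) or onto plants at the one-to-four leaf stage. Duck salad was treated via flood water (~2.5 cm, maintained) over silt loam.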

pigweed = assay: as above; type: in vivo, Amaranthusretroflexus; details: for Plant response rating Pigweed: 125 g/ha, 0 to 100 scale
In short: as §1

ryegrass = assay: as above; type: in vivo, Lolium multiflorum; details: for Plant response rating Ryegrass: 125 g/ha, 0 to 100 scale
In short: as §1

sorghum = assay: as above; type: in vivo, Sorghum bicolor; details: for Plant response rating, Sorghum: 125 g/ha, 0 to 100 scale
In short: as §1

sugar beet = assay: as above; type: in vivo, Beta vulgaris; details: for Plant response rating, Sugar beet: 125 g/ha, 0 to 100 scale
In short: as §1

wild buckwheat = assay: as above; type: in vivo, Polygonum convolvulus; details: for Plant response rating, Wild buckwheat: 125 g/ha, 0 to 100 scale
In short: as §1

duck salad = assay: Test C flood test plant response rating 0 to 100; type: in vivo, Heteranthera limosa
From the text: The compounds evaluated in this test were formulated in a non-phytoxic solvent and applied to the soil surface before plant seedlings emerged (preemergence application), to water that covered the soil surface (flood application), and to plants that were in the one-to-four leaf stage (postemergence application). A sandy loam soil was used for the preemergence and postemergence tests, while a silt loam soil was used in the flood test. Water depth was approximately 2.5 cm for the flood test and was maintained at this level for the duration of the test. Plant species in the preemergence and postemergence tests consisted of barley (Hordeum vulgare), bedstraw (Galium aparine), blackgrass (Alopecurus myosuroides), chickweed (Stellaria media), corn (Zea mays), cotton (Gossypium hirsutum), crabgrass (Digitaria sanguinalis), downy brome (Bromus tectorum), giant foxtail (Setaria faberii), lambsquarters (Chenopodium album), morningglory (Ipomoea hederacea), pigweed ([…]), rape (Brassica napus), ryegrass (Lolium multiflorum), sorghum (Sorghum bicolor), soybean (Glycine max), speedwell (Veronica persica), sugar beet (Beta vulgaris), velvetleaf (Abutilon theophrasti), wheat (Triticum aestivum), wild buckwheat (Polygonum convolvulus), and wild oat (Avena fatua). All plant species were planted one day before application of the compound for the preemergence portion-of this test. Plantings of these species were adjusted to produce plants of appropriate size for the post-emergence portion of the test. […] All plant species were grown using normal greenhouse practices. Visual evaluations of injury expressed on treated plants, when compared to untreated controls, were recorded approximately fourteen to twenty one days after application of the test compound. […] A dash (-) response means no test result.

CCOCOc1cc(-c2nn3c(c2Cl)CCCC3)c(F)cc1Cl [Compound 59]
Plant response rating, Blackgrass (blackgrass; POSTEMERGENCE): 70
Plant response rating (0 to 100), Blackgrass (blackgrass; POSTEMERGENCE, Rate 2 g/ha): 20
Plant response rating, Blackgrass (blackgrass; PREEMERGENCE): 90
Plant response rating (0 to 100), Blackgrass (blackgrass; PREEMERGENCE, Rate 2 g/ha): 0
Plant response rating (0 to 100), Blackgrass (blackgrass; Rate 8 g/ha, POSTEMERGENCE): 30
Plant response rating (0 to 100), Blackgrass (blackgrass; Rate 8 g/ha, PREEMERGENCE): 20
Plant response rating (0 to 100), Blackgrass (blackgrass; Rate 31 g/ha, POSTEMERGENCE): 50
Plant response rating (0 to 100), Blackgrass (blackgrass; Rate 31 g/ha, PREEMERGENCE): 50
Plant response rating Pigweed (pigweed; POSTEMERGENCE): 100
Plant response rating (0 to 100), Pigweed (pigweed; POSTEMERGENCE, Rate 2 g/ha): 30
Plant response rating Pigweed (pigweed; PREEMERGENCE): 100
Plant response rating (0 to 100), Pigweed (pigweed; PREEMERGENCE, Rate 2 g/ha): 0
Plant response rating (0 to 100), Pigweed (pigweed; Rate 8 g/ha, POSTEMERGENCE): 30
Plant response rating (0 to 100), Pigweed (pigweed; Rate 8 g/ha, PREEMERGENCE): 100
Plant response rating (0 to 100), Pigweed (pigweed; Rate 31 g/ha, POSTEMERGENCE): 100
Plant response rating (0 to 100), Pigweed (pigweed; Rate 31 g/ha, PREEMERGENCE): 100
Plant response rating Ryegrass (ryegrass; POSTEMERGENCE): 80
Plant response rating (0 to 100), Ryegrass (ryegrass; POSTEMERGENCE, Rate 2 g/ha): 10
Plant response rating Ryegrass (ryegrass; PREEMERGENCE): 90
Plant response rating (0 to 100), Ryegrass (ryegrass; PREEMERGENCE, Rate 2 g/ha): 0
Plant response rating (0 to 100), Ryegrass (ryegrass; Rate 8 g/ha, POSTEMERGENCE): 20
Plant response rating (0 to 100), Ryegrass (ryegrass; Rate 8 g/ha, PREEMERGENCE): 20
Plant response rating (0 to 100), Ryegrass (ryegrass; Rate 31 g/ha, POSTEMERGENCE): 40
Plant response rating (0 to 100), Ryegrass (ryegrass; Rate 31 g/ha, PREEMERGENCE): 50
Plant response rating, Sorghum (sorghum; POSTEMERGENCE): 70
Plant response rating (0 to 100), Sorghum (sorghum; POSTEMERGENCE, Rate 2 g/ha): 20
Plant response rating, Sorghum (sorghum; PREEMERGENCE): 20
Plant response rating (0 to 100), Sorghum (sorghum; PREEMERGENCE, Rate 2 g/ha): 0
Plant response rating (0 to 100), Sorghum (sorghum; Rate 8 g/ha, POSTEMERGENCE): 40
Plant response rating (0 to 100), Sorghum (sorghum; Rate 8 g/ha, PREEMERGENCE): 0
Plant response rating (0 to 100), Sorghum (sorghum; Rate 31 g/ha, POSTEMERGENCE): 60
Plant response rating (0 to 100), Sorghum (sorghum; Rate 31 g/ha, PREEMERGENCE): 10
Plant response rating, Sugar beet (sugar beet; POSTEMERGENCE): 100
Plant response rating (0 to 100), Sugar beet (sugar beet; POSTEMERGENCE, Rate 2 g/ha): 90
Plant response rating, Sugar beet (sugar beet; PREEMERGENCE): 100
Plant response rating (0 to 100), Sugar beet (sugar beet; PREEMERGENCE, Rate 2 g/ha): 0
Plant response rating (0 to 100), Sugar beet (sugar beet; Rate 8 g/ha, POSTEMERGENCE): 100
Plant response rating (0 to 100), Sugar beet (sugar beet; Rate 8 g/ha, PREEMERGENCE): 30
Plant response rating (0 to 100), Sugar beet (sugar beet; Rate 31 g/ha, POSTEMERGENCE): 100
Plant response rating (0 to 100), Sugar beet (sugar beet; Rate 31 g/ha, PREEMERGENCE): 50
Plant response rating, Wild buckwheat (wild buckwheat; POSTEMERGENCE): 100
Plant response rating (0 to 100), Wild buckwheat (wild buckwheat; POSTEMERGENCE, Rate 2 g/ha): 100
Plant response rating, Wild buckwheat (wild buckwheat; PREEMERGENCE): 100
Plant response rating (0 to 100), Wild buckwheat (wild buckwheat; PREEMERGENCE, Rate 2 g/ha): 0
Plant response rating (0 to 100), Wild buckwheat (wild buckwheat; Rate 8 g/ha, POSTEMERGENCE): 100
Plant response rating (0 to 100), Wild buckwheat (wild buckwheat; Rate 8 g/ha, PREEMERGENCE): 0
Plant response rating (0 to 100), Wild buckwheat (wild buckwheat; Rate 31 g/ha, POSTEMERGENCE): 100
Plant response rating (0 to 100), Wild buckwheat (wild buckwheat; Rate 31 g/ha, PREEMERGENCE): 50
Plant response rating (0 to 100), Duck salad (duck salad; POSTEMERGENCE section, flood test, Rate 2 g/ha): 0
Plant response rating (0 to 100), Duck salad (duck salad; Rate 8 g/ha, under POSTEMERGENCE head (flood test species)): 0
Plant response rating (0 to 100), Duck salad (duck salad; Rate 31 g/ha, under POSTEMERGENCE head (flood test species)): 40
Plant response rating Duck salad (duck salad; flood test species listed under POSTEMERGENCE, 125 g/ha, 0 to 100 scale): 80
